Test results: PubChem BioAssay AID1053129 (The Scripps Research Institute Molecular Screening Center, 2014)
Calls of active or inactive are those of the source. The rule behind the calls is not given here.

The compounds below were run against Fibrinogen beta chain (Homo sapiens) (UniProt P02675) (assay: inhibitors of Tn6 peptide binding to fibrin DD(E), late-stage follow-up, biochemical, fluorescence polarization, human fibrin, dose response (AID 1053129)). Settings: FP, Tn6 cyclic peptide binding to DD(E).
Chain of Fibrinogen beta chain (Homo sapiens) (P02675 whole entry, looked up): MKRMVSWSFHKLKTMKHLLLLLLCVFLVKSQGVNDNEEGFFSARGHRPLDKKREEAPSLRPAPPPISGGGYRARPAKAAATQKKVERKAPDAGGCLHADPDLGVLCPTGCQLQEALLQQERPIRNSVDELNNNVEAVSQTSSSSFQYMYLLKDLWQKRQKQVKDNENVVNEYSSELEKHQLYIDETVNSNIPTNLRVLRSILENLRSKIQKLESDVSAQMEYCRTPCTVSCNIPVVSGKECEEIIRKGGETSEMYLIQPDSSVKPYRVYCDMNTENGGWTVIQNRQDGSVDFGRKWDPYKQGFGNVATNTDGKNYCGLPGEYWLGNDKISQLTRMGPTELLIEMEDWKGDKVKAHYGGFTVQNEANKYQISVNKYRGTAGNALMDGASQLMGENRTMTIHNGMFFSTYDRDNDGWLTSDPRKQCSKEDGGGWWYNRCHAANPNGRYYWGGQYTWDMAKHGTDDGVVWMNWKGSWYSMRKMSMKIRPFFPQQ

| IC50 | Compound |
| --- | --- |
| > 83.3 µM (inactive) | Cc1cc2cc(CNS(=O)(=O)c3ccc4ccccc4c3)ccc2n1C |
| 7.39 µM | CCn1c(CSc2n[nH]c(N)n2)nc2cc(C(=O)O)ccc21 |
| > 83.3 µM (inactive) | COc1ccc2ccccc2c1C(O)c1nccn1C (stereo not given) |
| inactive | CN1C(=O)NC(c2ccccc2[N+](=O)[O-])C2=C1CCCC2=O (stereo not given) |

Further lines, the compound ahead of its results:

| Compound | IC50 |
| --- | --- |
| Cc1cc2c(cc1S(=O)(=O)N1CCN(c3cccc(C)c3C)CC1)OCCN2C | > 83.3 µM (inactive) |
| N#CC1=C(N)Oc2ccc3ccc(O)cc3c2C1c1ccsc1 (stereo not given) | 3.5 µM |
| NS(=O)(=O)c1ccc(NS(=O)(=O)c2ccc(NC(=O)c3ccc(-c4ccccc4)cc3)cc2)cc1 | 3.43 µM |
| Cc1cc(C)c(S(=O)(=O)NCCn2c(C)cc3ccccc32)c(C)c1 | > 83.3 µM (inactive) |
| O=C(O)CCCNc1cc(N2CCN(C(=O)c3ccco3)CC2)c2noc3c2c1C(=O)c1ccccc1-3 | 6.78 µM |
| Cc1cc2cc(CNC(=O)c3ccc(S(=O)(=O)N4CCOCC4)cc3)ccc2n1C | > 83.3 µM (inactive) |
